The source of these data is article PMC11430712, “The Endocannabinoid Peptide RVD-Hemopressin Is a TRPV1 Channel Blocker” (Biomolecules, 2024).

In series [1] the test system is TRPV1 channel. More on the design: method as in 4 sources, ref [12]; anandamide and 2-AG ref [13],[14],[15],[16] ||| ref [88],[89] = [88]; PMID 27281200; doi:10.1038/nature17964; 88. Gao Y. Cao E. Julius D. Cheng Y. TRPV1 structures in nanodiscs reveal mechanisms of ligand and lipid action Nature 2016 534 347 351 10.1038/nature17964 27281200 PMC4911334 || [89]; PMID 37117175; doi:10.1038/s41467-023-38162-9; 89. Neuberger A. Oda M. Nikolaev Y.A. Nadezhdin K.D. Gracheva E.O. Bagriantsev S.N. Sobolevsky A.I. Human TRPV1 structure and inhibition by the analgesic SB-366791 Nat. Commun. 2023 14 2451 10.1038/s4 ||| ref [90] = [90]; PMID 38698206; doi:10.1038/s41594-024-01299-2; 90. Arnold W.R. Mancino A. Moss F.R. Frost A. Julius D. Cheng Y. Structural basis of TRPV1 modulation by endogenous bioactive lipids Nat. Struct. Mol. Biol. 2024 1 9 10.1038/s41594-024-01299-2 3869820 ||| ref [67] = [67]; PMID 29117570; doi:10.1016/j.celrep.2017.10.063; 67. Nersesyan Y. Demirkhanyan L. Cabezas-Bratesco D. Oakes V. Kusuda R. Dawson T. Sun X. Cao C. Cohen A.M. Chelluboina B. Oxytocin Modulates Nociception as an Agonist of Pain-Sensing TRPV1 Cell Rep. 2. As to conditions: cited from earlier work; for TRPV1 activation: capsaicin ref [12], anandamide and 2-AG ref [13],[14],[15],[16]; for TRPV1 channel state: vanilloid pocket, ref [90]. An excerpt:
The transient receptor potential (TRP) channels family involves several subfamilies, including the vanilloid (TRPVs) group. TRPV1, a member of the TRPV subfamily, is a non-selective cationic homotetramer channel. It is known to be activated by various stimuli, including temperature, capsaicin (the principal compound in chili peppers), and endocannabinoids such as anandamide (AEA) and 2-arachidonoylglycerol (2-AG). The TRPV1 channel protein is found in the central (CNS) and peripheral nervous system (PNS). In the CNS, TRPV1 is expressed in the prefrontal cort ... || Molecular dynamics (MD) simulations allow studying protein dynamics at an atomic level under physiological conditions, enhancing our understanding of various proteins, including ion channels like TRPV1 [82]. These simulations provide insight into their function, conformational changes, and interactions with different ligands.

The conditions of series [2]: individuals with osteoarthritis; ref [99]; cited from earlier work. The source says: Capsaicin creams and patches have been used in the treatment of muscle pain, neuropathic pain, arthritis, and migraines. […] CNTX-4975 has been developed as a treatment option for pain in individuals with osteoarthritis.
Series [3] concerns the target T1, human TRPV1 channel (Homo sapiens, UniProt Q8NER1).
T1 construct: host or cells: HEK293
Description: Whole-cell voltage-clamp recording of TRPV1 currents, HEK293 cells with human TRPV1-GFP. The format is cell-based. The protocol: (§1) Dr. Alejandro Maureira, Universidad Católica del Maule, Chile, generously provided HEK293 cells. The cells were cultured in T75 flasks (Corning Inc., Corning, NY, USA) in a humidified atmosphere at 37 °C with 5% CO2 in Dulbecco’s Modified Eagle Medium (DMEM) with high glucose (Cytiva, Marlborough, MA, USA), supplemented with 10% fetal bovine serum (Cytiva, Marlborough, MA, USA) and a mixture of 100 IU/mL penicillin and 100 µg/mL streptomycin (Corning Inc., Corning, NY, USA) in a CO2CELL incubator (MMM Group, Munich, Germany). This procedure was used to maintain the cells for all of the experiments.
(§2) HEK293 cells were transfected with the human TRPV1 channel coupled to GFP in its C-terminus (TRPV1-GFP, catalog #: RG217653, Origene, Rockville, MD, USA). […] Transfections were conducted using Lipofectamine 3000 (Invitrogen, Waltham, MA, USA), according to the manufacturer’s instructions. Experimental protocols were performed 24 h post-transfection.
Untransfected and transfected HEK293 cells with the human TRPV1-GFP were recorded using a whole-cell voltage clamp. Cells were cultured in 15 mm round coverslips pretreated with 0.1 mg/mL poly-L-lysine (Gibco, Billings, MT, USA) and transfected with TRPV1-GFP plasmid. TRPV1-GFP-positive cells were identified using a 405 nm LED light in a Nikon Eclipse Ts2 inverted microscope. Borosilicate pipettes (nº 1B150F-4, World Precision Instruments, Sarasota, FL, USA) of 2.8’5 MΩ were used. Pipettes were pulled with a P-97 Micropipette Puller (Sutter Instruments, Novato, CA, USA). The extracellular solution contained (in mM) 140 NaCl, 5 KCl, 2 CaCl2, 1 MgCl2, 10 HEPES, and 6 glucose at pH 7.4. The internal solution contained (in mM) 140 CsCl, 4 MgCl2, 10 EGTA, and 10 HEPES-CsOH at pH 7.3. All the experiments were recorded using a HEKA EPC9 amplifier. The holding potential was −80 mV. A 500 ms voltage ramp from −80 to 80 mV was applied to record TRPV1 currents. The sample frequency was 50 kHz, and the signals were filtered at 2.9 kHz using PatchMaster software. Data were analyzed using Clampfit v.7 software (Molecular Devices, San Jose, CA, USA). The extracellular solution and ligands were administered using a VC-8 perfusion system (~2 mL/s, Warner Instruments, Holliston, MA, USA). We used capsaicin (Cayman Chemicals, nº 92350), SB366791 (nº 11019, Cayman Chemicals, Ann Arbor, MI, USA), and RVD-Hp (Synbio Technologies, Monmouth Junction, NJ, USA). We used dimethyl sulfoxide (DMSO, Sigma-Aldrich, St. Louis, MO, USA) and untransfected cells as controls. Electrophysiological recordings were performed at room temperature.
(§3) The data were analyzed and plotted using GraphPad software v10.0.2. We used the Shapiro–Wilk test to determine the data distribution. […] Statistically significant values were considered when p values were * p < 0.05, ** p < 0.01, *** p < 0.001, and **** p < 0.0001.

For series [4] the following is noted: ref [106]; cited from earlier work. The source says:
Chronic pain is often accompanied by the development of depression. […] However, a significant challenge in utilizing RVD-Hp as a therapeutic agent lies in the inherent sensitivity of peptides to enzymatic degradation. […] Developing carriers that can stabilize RVD-Hp and facilitate its delivery to the brain is essent ...

For series [5], the system named is rats. As to conditions: cited from earlier work. The source says:
Despite this, evidence of a direct interaction between Hp and the TRPV1 channel is lacking. We speculate that Hp binds and activates TRPV1, possibly engaging the same binding site as RVD-Hp. […] Thus, RVD-Hp emerges and holds potential as a novel modulator for non-opioid analgesia and anxiety treatment. […] Moreover, since RVD-Hp effectively blocks the open TRPV1 channel, it presents a promising approach to inhibit the population of TRPV1 channels that are pathologically over-activated, thereby ... || (+ 1 further places)

Series [6] deals with T1, human TRPV1 channel. Description: Calcium imaging (Fura Red-AM), HEK293 cells transfected with hTRPV1-GFP. The format is cell-based. The following applies: pH 7.4, room temperature. The protocol: as §1, §2, §3
Series [7] addresses human TRPV1 channel coupled to GFP in its C-terminus (human) (UniProt Q8NER1).

“Also recorded” adds a separate entry of the source. Peptide text beside a SMILES is read from it.

T1 sequence (Q8NER1 whole entry): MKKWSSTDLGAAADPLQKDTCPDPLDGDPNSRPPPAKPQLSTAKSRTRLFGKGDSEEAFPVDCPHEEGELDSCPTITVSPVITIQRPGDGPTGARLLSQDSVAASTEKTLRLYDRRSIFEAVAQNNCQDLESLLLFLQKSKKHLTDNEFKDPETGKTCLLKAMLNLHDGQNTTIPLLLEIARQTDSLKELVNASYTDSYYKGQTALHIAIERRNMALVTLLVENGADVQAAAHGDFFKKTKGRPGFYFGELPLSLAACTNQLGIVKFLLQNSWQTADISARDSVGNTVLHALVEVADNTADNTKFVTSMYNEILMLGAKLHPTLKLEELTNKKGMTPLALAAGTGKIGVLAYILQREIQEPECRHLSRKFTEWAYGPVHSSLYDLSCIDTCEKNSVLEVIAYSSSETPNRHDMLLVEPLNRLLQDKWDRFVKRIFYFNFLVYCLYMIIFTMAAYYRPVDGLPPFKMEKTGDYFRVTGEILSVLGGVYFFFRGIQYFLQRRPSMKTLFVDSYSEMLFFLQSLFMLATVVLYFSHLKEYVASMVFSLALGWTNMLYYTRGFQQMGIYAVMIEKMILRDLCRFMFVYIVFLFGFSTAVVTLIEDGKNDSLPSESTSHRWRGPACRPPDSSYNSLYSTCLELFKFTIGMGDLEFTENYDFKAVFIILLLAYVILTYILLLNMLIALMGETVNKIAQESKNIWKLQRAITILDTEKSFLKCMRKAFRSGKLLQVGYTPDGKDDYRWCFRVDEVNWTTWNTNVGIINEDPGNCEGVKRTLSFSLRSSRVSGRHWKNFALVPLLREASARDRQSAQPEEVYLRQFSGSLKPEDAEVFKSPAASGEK
Sequence of human TRPV1 channel coupled to GFP in its C-terminus (human) (Q8NER1 whole entry): as above

On to `CCCCC/C=C\C/C=C\C/C=C\C/C=C\CCCC(=O)OC(CO)CO` [2-arachidonoylglycerol], for which the TRPV1 activation result in series [1] is “activated”.

With `COc1cc(CNC(=O)CCCC/C=C/C(C)C)ccc1O` [CNTX-4975], in series [2], the Adverse effects result was “nausea, hypotension, oral hypoesthesia, and erythema”.

With `CC(C)C[C@H](NC(=O)[C@H](CC(C)C)NC(=O)[C@H](CCCCN)NC(=O)[C@H](Cc1ccccc1)NC(=O)[C@H](CC(N)=O)NC(=O)[C@@H](NC(=O)[C@@H]1CCCN1C(=O)[C@H](CC(=O)O)NC(=O)[C@@H](NC(=O)[C@@H](N)CCCNC(=N)N)C(C)C)C(C)C)C(=O)N[C@@H](CO)C(=O)N[C@@H](Cc1cnc[nH]1)C(=O)O` [RVD-Hp, RVD-hemopressin] (H-RVDPVNFKLLSH-OH), half-maximal inhibition in series [3] (IC50) required 18.6 µM. Besides, in series [4], the “Blood–brain barrier crossing” value is “cannot cross the blood–brain barrier” and the Stability in plasma entry is “low stability in plasma”.

As to `COc1cccc(NC(=O)/C=C/c2ccc(Cl)cc2)c1` [SB366791], the “Effect on Hp-induced anxious behavior” value in series [5] (SB366791 on Hp-induced behavior, ref [8]) is on record as “mitigating impact; also recorded: mitigated”. The “Block of Cap-induced increase in intracellular Ca^2+ concentration” value in series [6] (1 µM Cap + 10 µM RVD-Hp (n: 60, * p < 0.032) or 10 µM SB366791 (n: 20, * p < 0.0113), comparison to Cap) was “partially blocked”. Besides, the “Effect on intracellular Ca^2+ of the compound alone” value in series [6] (10 µM alone, no Cap, RVD-Hp n: 59, SB366791 n: 51) was “Neither 10 µM RVD-Hp nor 10 µM SB366791 augmented the intracellular Ca^2+”. In addition, in series [3] (10 µM alone vs 1 µM Cap, ***** p < 0.0001), the “Current of compound alone compared with Cap-induced TRPV1 current” value was “significantly different from the Cap-induced TRPV1 current”. For the same molecule, in series [3] (10 µM alone vs control (n: 7)), the “Current of compound alone compared with control” value was “not different from the control”. In addition, the “TRPV1 currents induced by the compound alone” value in series [3] (10 µM alone, +80 mV, RVD-Hp n: 4, SB366791 n: 3, room temperature) is “Neither 10 µM RVD-Hp nor 10 µM SB366791 alone induced TRPV1 currents”. The “Block of Cap-induced TRPV1 currents” value in series [3] (10 µM with 1 µM Cap, +80 mV, RVD-Hp n: 4 (* p < 0.0214), SB366791 n: 4 (**** p < 0.0001), comparison to capsaicin, room temperature) is recorded as “blocked”. In addition, in series [1] (requiring four molecules to induce channel closure, ref [88],[89]), the “TRPV1 binding mode of antagonists” value is “bind to the vanilloid pocket and compete with capsaicin”.

As to `CCCCC/C=C\C/C=C\C/C=C\C/C=C\CCCC(=O)NCCO` [anandamide], in series [1], the TRPV1 activation entry is listed as “activated”.

Consider Phosphoinositide, for which, in series [1], the TRPV1 channel state entry is given as “favor the close state of the TRPV1 channel”.

For the molecule hemopressin, in series [5] (rats, ref [8],[9]), the “Anxiety-like behavior (Hp in rats)” value is on record as “induces anxiety-like behavior in rats”. Also, the Anxiety-/depressive-like behavior result in series [5] (rodent models, ref [8]) is “induce anxiogenic and depressive-like behaviors”.

lysophosphatidic acid: the TRPV1 channel state entry in series [1] is recorded as “induces channel opening”.

Take oxytocin: the “TRPV1 activation and nociception (oxytocin)” value in series [1] (ref [67]) is “activate the TRPV1 channel and modulate nociception”.

phosphatidylinositol 4,5-biphosphate: the TRPV1 channel state entry in series [1] is recorded as “favor the close state of the TRPV1 channel”.

For RVDPVNFKLLSH [RVD-hemopressin], the whole-cell voltage clamp of HEK293 cells expressing TRPV1-GFP: inhibition of the TRPV1 current induced by 1 µM capsaicin (at +80 mV), RVD-Hp at 1, 10, 20 and 50 µM; IC50 in series [7] was found to be 18.6 µM.
